Key:
CYP3A4 [1] = biological target: T1, CYP3A4 (Homo sapiens, UniProt P08684); test: Inhibition of CYP3A4 (testosterone 6β-hydroxylation) in pooled human liver microsomes; format: in vitro ADME
T1 construct: CYP3A4 catalyzed reactions (testosterone 6β-hydroxylation) in pooled HLM; from tissue; host or cells: pooled human liver microsomes
Protocol: (§1) All incubations were performed in triplicate, and the mean values were utilized. The typical incubation systems contained 100 mM potassium phosphate buffer (pH 7.4), NADPH generating system (1 mM NADP^+, 10 mM glucose-6-phosphate, 1 U/mL of glucose-6-phosphate dehydrogenase, and 4 mM MgCl2), the appropriate concentration of HLMs, a corresponding probe substrate and hispidulin (or positive inhibitor for different probe reactions) in a final volume of 200 μL.
(§2) The concentration of GAA was 100 μM, and the positive inhibitor concentrations were as follows: 10 μM furafylline for CYP1A2, 1 μM ketoconazole for CYP3A4, 10 μM tranylcypromine for CYP2A6, 50 μM clomethiazole for CYP2E1, 10 μM quinidine for CYP2D6, 10 μM sulfaphenazole for CYP2C9, 50 μM tranylcypromine for CYP2C19, 5 μM montelukast for CYP2C8. Probe substrates, positive inhibitors (except for dextromethorphan and quinidine, which were dissolved in water) and GAA were dissolved in methanol, with a final concentration of 1% (v/v), and 1% neat methanol was added to the incubations without inhibitor. There was a 3 min preincubation period (at 37 °C) before the reaction was initiated by adding an NADPH-generating system. The reaction was terminated by adding a 100 μL acetonitrile (10% trichloroacetic acid for CYP2A6) internal standard mix, and the solution was placed on ice. The mixture was centrifuged at 12,000 rpm for 10 min, and an aliquot (50 μL) of supernatant was transferred for HPLC analysis. The instrument used in this study was Agilent 1260 series instrument with DAD and FLD detector, and the quantitative assay for the corresponding metabolites was performed as previously reported (Lang et al. [2017]; Zhang et al. [2017]).
(§3) GAA (100 μM) was used to initially screen for its direct inhibitory effects towards different human CYP isoforms. […]
(§4) The enzyme kinetic parameters for the probe reaction were estimated from the best fit line, using least-squares linear regression of the inverse substrate concentration versus the inverse velocity (Lineweaver-Burk plots), and the mean values were used to calculate Vmax and Km. Inhibition data from the experiments that were conducted using multiple compound concentrations were represented by Dixon plots, and inhibition constant (Ki) values were calculated using non-linear regression according to the following equation: v=(VmaxS)/(Km(1+I/Ki)+S), where I is the concentration of the compound, Ki is the inhibition constant, S is the concentration of the substrate, and Km is the substrate concentration at half the maximum velocity (Vmax) of the reaction. The mechanism of the inhibition was assessed using the Lineweaver-Burk plots and the enzyme inhibition models. […]

CYP2E1 [2] = biological target: T2, CYP2E1 (Homo sapiens, UniProt P05181); test: Inhibition of CYP2E1 (chlorzoxazone 6-hydroxylation) in pooled human liver microsomes; format: in vitro ADME
T2 construct: CYP2E1 catalyzed reactions (chlorzoxazone 6-hydroxylation) in pooled HLM; from tissue; host or cells: pooled human liver microsomes
T2 sequence (P05181 whole entry): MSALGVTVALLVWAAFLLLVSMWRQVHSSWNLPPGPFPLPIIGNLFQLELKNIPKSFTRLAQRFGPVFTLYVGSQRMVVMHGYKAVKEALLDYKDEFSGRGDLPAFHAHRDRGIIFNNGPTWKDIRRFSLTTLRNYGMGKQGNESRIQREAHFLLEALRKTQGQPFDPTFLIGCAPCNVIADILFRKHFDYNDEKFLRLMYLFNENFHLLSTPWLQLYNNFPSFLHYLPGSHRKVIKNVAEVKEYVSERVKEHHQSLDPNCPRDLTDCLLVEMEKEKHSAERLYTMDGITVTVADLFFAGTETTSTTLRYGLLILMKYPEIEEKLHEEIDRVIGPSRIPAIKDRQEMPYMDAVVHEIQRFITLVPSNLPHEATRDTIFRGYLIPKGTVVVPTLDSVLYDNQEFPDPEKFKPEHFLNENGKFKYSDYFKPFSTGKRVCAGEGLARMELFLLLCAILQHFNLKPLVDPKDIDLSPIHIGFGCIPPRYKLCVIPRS
Protocol: as §1, §2, §3, §4

CYP3A4 [3] = biological target: T1, CYP3A4; test: Time-dependent inhibition study, CYP3A4 in human liver microsomes; format: in vitro ADME
Protocol: (§5) To determine whether GAA could inhibit the activity of CYP3A4, 2D6, and 2E1 in a time-dependent manner, GAA (20 μM) was pre-incubated with HLMs (1 mg/mL) in the presence of an NADPH-generating system for 30 min at 37 °C. After incubation, an aliquot (20 μL) was transferred to another incubation tube (final volume 200 μL) containing an NADPH-generating system and probe substrates whose final concentrations were approximate to Km. Then, further incubations were performed to measure the residual activity. After being incubated for 10 and 30 min, the reactions were terminated by adding a 100 μL acetonitrile internal standard mix and then placed on ice; the corresponding metabolites were determined by HPLC.
To determine the KI and Kinact values for the inactivation of CYP3A4, the incubations were conducted using higher probe substrate concentrations (approximately 4-fold Km values) and various concentrations of GAA (0–50 μM) after different preincubation times (0–30 min), with a two-step incubation scheme, as described above.

CYP2D6 [4] = biological target: T3, CYP2D6 (Homo sapiens, UniProt P10635); test: Time-dependent inhibition study, CYP2D6 in human liver microsomes; format: in vitro ADME; conditions: GAA 20 μM pre-incubated with HLMs and NADPH for 30 min
T3 construct: from tissue; host or cells: pooled human liver microsomes
T3 sequence (P10635 whole entry): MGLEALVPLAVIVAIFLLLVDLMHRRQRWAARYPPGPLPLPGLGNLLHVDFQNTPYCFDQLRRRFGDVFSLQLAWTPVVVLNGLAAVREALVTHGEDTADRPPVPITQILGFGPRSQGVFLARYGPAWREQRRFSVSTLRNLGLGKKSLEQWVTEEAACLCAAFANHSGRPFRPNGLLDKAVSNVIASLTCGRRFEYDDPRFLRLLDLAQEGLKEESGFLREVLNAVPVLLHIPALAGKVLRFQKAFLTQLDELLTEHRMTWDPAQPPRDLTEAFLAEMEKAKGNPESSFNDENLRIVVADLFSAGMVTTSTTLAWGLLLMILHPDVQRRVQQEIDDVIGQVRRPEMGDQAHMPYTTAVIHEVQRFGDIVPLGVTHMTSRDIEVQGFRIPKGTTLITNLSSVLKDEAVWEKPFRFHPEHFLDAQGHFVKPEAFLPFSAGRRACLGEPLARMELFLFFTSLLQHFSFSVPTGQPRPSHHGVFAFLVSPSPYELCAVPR
Protocol: as §5

CYP2E1 [5] = biological target: T2, CYP2E1; test: Time-dependent inhibition study, CYP2E1 in human liver microsomes; format: in vitro ADME; conditions: GAA 20 μM pre-incubated with HLMs and NADPH for 30 min
Protocol: as §5

CYP2C9 = test system: T4, CYP2C9; test: Inhibition of CYP2C9 (diclofenac 4′-hydroxylation) in pooled human liver microsomes; format: in vitro ADME; conditions: GAA 100 μM; pooled HLM
T4 construct: from tissue; host or cells: human liver microsomes
Protocol: as §1
as §2, with “There was a 3 min preincubation period (at 37 °C) before the reaction was initiated by adding an NADPH-generating system. The reaction was terminated by adding a 100 μL acetonitrile (10% trichloroacetic acid for CYP2A6) internal standard mix, and the solution was placed on ice. The mixture was centrifuged at 12,000 rpm for 10 min, and an aliquot (50 μL) of supernatant was transferred for HPLC analysis.” left out, “[2017]). […]” for “[2017]).”

CYP1A2 = test system: T5, CYP1A2; test: Inhibition of CYP1A2 (phenacetin O-deethylation) in pooled human liver microsomes; format: in vitro ADME; conditions: GAA 100 μM; pooled HLM
T5 construct: to investigate the effects of GAA on different CYP isoforms in HLM; from tissue; host or cells: human liver microsomes
Protocol: as §1
as §2, with “There was a 3 min preincubation period (at 37 °C) before the reaction was initiated by adding an NADPH-generating system. The reaction was terminated by adding a 100 μL acetonitrile (10% trichloroacetic acid for CYP2A6) internal standard mix, and the solution was placed on ice. The mixture was centrifuged at 12,000 rpm for 10 min, and an aliquot (50 μL) of supernatant was transferred for HPLC analysis.” left out, “[2017]). […]” for “[2017]).”

CYP2C19 = test system: T6, CYP2C19; test: Inhibition of CYP2C19 (S-mephenytoin 4-hydroxylation) in pooled human liver microsomes; format: in vitro ADME; conditions: GAA 100 μM; pooled HLM
T6 construct: from tissue; host or cells: human liver microsomes
Protocol: as §1
as §2, with “There was a 3 min preincubation period (at 37 °C) before the reaction was initiated by adding an NADPH-generating system. The reaction was terminated by adding a 100 μL acetonitrile (10% trichloroacetic acid for CYP2A6) internal standard mix, and the solution was placed on ice. The mixture was centrifuged at 12,000 rpm for 10 min, and an aliquot (50 μL) of supernatant was transferred for HPLC analysis.” left out, “[2017]). […]” for “[2017]).”

CYP2D6 [6] = biological target: T3, CYP2D6; test: Inhibition of CYP2D6 (dextromethorphan O-demethylation) in pooled human liver microsomes; format: in vitro ADME
Protocol: as §1, §2, §3, §4

CYP2A6 = test system: T7, CYP2A6; test: Inhibition of CYP2A6 (coumarin 7-hydroxylation) in pooled human liver microsomes; format: in vitro ADME; conditions: GAA 100 μM; pooled HLM
T7 construct: from tissue; host or cells: human liver microsomes
Protocol: as §1
as §2, with “There was a 3 min preincubation period (at 37 °C) before the reaction was initiated by adding an NADPH-generating system. The reaction was terminated by adding a 100 μL acetonitrile (10% trichloroacetic acid for CYP2A6) internal standard mix, and the solution was placed on ice. The mixture was centrifuged at 12,000 rpm for 10 min, and an aliquot (50 μL) of supernatant was transferred for HPLC analysis.” left out, “[2017]). […]” for “[2017]).”

CYP2C8 = test system: T8, CYP2C8; test: Inhibition of CYP2C8 (paclitaxel 6α-hydroxylation) in pooled human liver microsomes; format: in vitro ADME; conditions: GAA 100 μM; pooled HLM
T8 construct: from tissue; host or cells: human liver microsomes
Protocol: as §1
as §2, with “There was a 3 min preincubation period (at 37 °C) before the reaction was initiated by adding an NADPH-generating system. The reaction was terminated by adding a 100 μL acetonitrile (10% trichloroacetic acid for CYP2A6) internal standard mix, and the solution was placed on ice. The mixture was centrifuged at 12,000 rpm for 10 min, and an aliquot (50 μL) of supernatant was transferred for HPLC analysis.” left out, “[2017]). […]” for “[2017]).”

[7] = design: method as in Teekachunhatean et al. [2012]; Tseng et al. [2014]; conditions: after oral administration of 3000 mg Lingzhi; ref Teekachunhatean et al. [2012]; Tseng et al. [2014]; cited from earlier work

T1 sequence (P08684 whole entry): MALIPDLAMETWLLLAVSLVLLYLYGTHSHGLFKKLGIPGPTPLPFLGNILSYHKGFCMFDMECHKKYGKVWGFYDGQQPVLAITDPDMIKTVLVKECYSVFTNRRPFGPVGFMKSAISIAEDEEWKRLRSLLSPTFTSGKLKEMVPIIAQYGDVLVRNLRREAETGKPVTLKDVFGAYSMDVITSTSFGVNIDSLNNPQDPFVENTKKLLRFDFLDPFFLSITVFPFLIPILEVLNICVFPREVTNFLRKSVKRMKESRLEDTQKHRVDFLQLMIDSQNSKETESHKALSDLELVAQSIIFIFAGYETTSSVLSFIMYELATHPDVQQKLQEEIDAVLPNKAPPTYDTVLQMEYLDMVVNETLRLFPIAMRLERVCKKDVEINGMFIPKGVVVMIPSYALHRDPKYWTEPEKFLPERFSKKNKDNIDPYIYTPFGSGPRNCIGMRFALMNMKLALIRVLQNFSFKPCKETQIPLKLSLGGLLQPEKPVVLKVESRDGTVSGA

For C[C@H](CC(=O)C[C@@H](C)[C@H]1C[C@H](O)[C@@]2(C)C3=C(C(=O)C[C@]12C)[C@@]1(C)CCC(=O)C(C)(C)[C@@H]1C[C@@H]3O)C(=O)O [GAA, Ganoderic acid A], the IC50 (CYP3A4 [1]) was 15 µM, the Ki (CYP3A4 [1]) was 7.16 µM and the “activity of CYP3A4, % of negative control” value (CYP3A4 [1]; GAA 100 μM, pooled HLM, testosterone 6β-hydroxylation, remaining activity) was 14.6%. The “inhibition model of CYP3A4” value (CYP3A4 [1]; Lineweaver-Burk plots) was “non-competitive”, the IC50 (CYP2E1 [2]) was 28.3 µM and the Ki (CYP2E1 [2]) was 13.4 µM. The “activity of CYP2E1, % of negative control” value (CYP2E1 [2]; GAA 100 μM, pooled HLM, chlorzoxazone 6-hydroxylation, remaining activity) was 27.7%, the “inhibition model of CYP2E1” value (CYP2E1 [2]; Lineweaver-Burk plots) was “competitively” and the “time dependence of inhibition of CYP3A4” value (CYP3A4 [3]; GAA 20 μM pre-incubated with HLMs and NADPH for 30 min) was “time-dependent”. The “CYP3A4 inactivated every minute” value (CYP3A4 [3]; concluded from the value of Kinact, GAA incubated with HLM) was “about 4.8%”, the “time dependence of inhibition of CYP2D6” value (CYP2D6 [4]) was “stable with incubation time” and the “time dependence of inhibition of CYP2E1” value (CYP2E1 [5]) was “stable with incubation time”. The “effect on the activity of CYP2C9” value (CYP2C9) was “did not exert effect”, the “effect on the activity of CYP1A2” value (CYP1A2) was “did not exert effect” and the “effect on the activity of CYP2C19” value (CYP2C19) was “did not exert effect”. The IC50 (CYP2D6 [6]) was 21.8 µM, the Ki (CYP2D6 [6]) was 10.1 µM and the “activity of CYP2D6, % of negative control” value (CYP2D6 [6]; GAA 100 μM, pooled HLM, dextromethorphan O-demethylation, remaining activity) was 18.2%. The “inhibition model of CYP2D6” value (CYP2D6 [6]; Lineweaver-Burk plots) was “competitively”, the “effect on the activity of CYP2A6” value (CYP2A6) was “did not exert effect” and the “effect on the activity of CYP2C8” value (CYP2C8) was “did not exert effect”. For the same molecule, the “maximum concentration in plasma of GAA” value [7] was 2.24 to 10.99 ng/mL.
